Several values for one entry are separate records, joined by “and”; a condition that tells them apart may be missing. Identical values can stand only once. Like-named read-outs stand apart in the source and are kept apart here.

In data set [1] the test system is HIV-1 RF. The class given is cell-based.
The test system of data set [2] is HIV-1 ROJO. The class given is cell-based. The settings on record: HIV primary isolate ROJO; PBMC; T-tropic; supernatant RT activity; mean value.
Data set [3] deals with HIV-1 ADA. The class given is cell-based. As to conditions: HIV primary isolate ADA; macrophage; M-tropic; p24 ELISA; mean value.
For data set [4], the system named is HIV-1 Ba-L. The class given is cell-based. The settings on record: HIV primary isolate Ba-L; macrophage; M-tropic; p24 ELISA; mean value.
Data set [5] deals with gp120 (Human immunodeficiency virus type 1 group M subtype B, UniProt P03378). The class given is binding, HIV-1. The settings on record: glycosylated and nonglycosylated HIV-1SF2 gp120, serial dilutions; FIG. 5b.
For data set [6], the system named is gp120. Type of data set: binding, HIV-1. As to conditions: 100 ng protein standard, Griffithsin 100 ng/well; FIG. 5a.
For data set [7], the target named is sCD4 (Homo sapiens, UniProt P01730). Type of data set: binding.
Data set [8] concerns bovine IgG, α-acid glycoprotein, and aprotinin. Type of data set: binding.
Data set [9] has as its system HIV. The class given is cell-based. From the text:
Potent cytoprotective and anti-replicative activities of both natural and His-tagged recombinant Griffithsin were observed using the HIV-1RF strain of HIB in CEM-SS cells. […] In contrast, infectivity of cell-free virus was abolished after pretreatment and removal of Griffithsin.

The test system of data set [10] is cell-cell fusion of uninfected and chronically infected CEM-SS. Type of data set: cell-based.
In data set [11] the test system is fusion of CD4 β-gal cells with HL 2/3 cells. Type of data set: cell-based.
For data set [12], the system named is HIV-1IIIB. Type of data set: cell-based. As to conditions: concentration-dependent manner.
The subject of data set [13] is Beijing/262/95 (H1N1). Type of data set: cell-based, influenza A.
Data set [14] has as its system Texas/36/91 (H1N1). The class given is cell-based, influenza A.
The test system of data set [15] is Los Angeles/2/87 (H3N2). Type of data set: cell-based, influenza A.
For data set [16], the system named is Panama/2007/99 (H3N2). Type of data set: cell-based, influenza A.
For data set [17], the system named is Shandong/09/93 (H3N2). The class given is cell-based, influenza A.
Data set [18] relates to Sydney/5/97 (H3N2). Type of data set: cell-based, influenza A.
Data set [19] deals with Washington/05/96 (H3N2). Type of data set: cell-based, influenza A.
The test system of data set [20] is HCV RNA replicon. The class given is cell-based, Hepatitis C virus. The settings on record: for Inhibition of Viral Activity (% reduction Luc): 20 µM.
Data set [21] concerns SARS virus. Type of data set: cell-based.
Data set [22] concerns Vero76 cells. Type of data set: cell-based.
Data set [23] relates to Vero76 cells. The class given is cell-based. This is another data set of the same source.
Data set [24] has as its system MDCK cells. As to the kind of experiment: cells. Type of data set: cell-based, canine.
The subject of data set [25] is MDCK cells. As to the kind of experiment: cells. The class given is cell-based, canine. This is another data set of the same source.
In data set [26] the test system is Zaire ebola virus. The class given is cell-based.
Data set [27] concerns CEM-SS cells. Further details: direct cytotoxicity to the host cells: dose or concentration left out as unconfirmed.
In data set [28] the test system is T-lymphocytes (CEM-SS), PBMCs, macrophages. As to conditions: concentrations 1000-fold higher than the EC50 values.
Data set [29] concerns the target gp160 (Human immunodeficiency virus type 1 group M subtype B, UniProt P03375). The settings on record: 100 ng protein standard, Griffithsin 100 ng/well; FIG. 5a.
The target in data set [30] is soluble gp120 (sgp120) (Human immunodeficiency virus type 1 group M subtype B, UniProt P03375).
In data set [31] the target is sgp120 binding of CD4 on CEM-SS cells (Human immunodeficiency virus type 1 group M subtype B, UniProt P03375). The settings on record: pretreatment of sgp120 with Griffithsin, Leu3a epitope availability.
Data set [32] relates to MDCK cell line.
The test system of data set [33] is Huh7 ET cell line. The settings on record: for Cytotoxicity (% reduction in rRNA)*: single high-test concentration, compared to control cell.
The test system of data set [34] is SARS virus.
Data set [35] deals with SARS virus. The source holds these as a separate data set.
The mark [36] stands for this setting: Canis lupus familiaris, MDCK, 72 h.

gp120 (Human immunodeficiency virus type 1 group M subtype B, UniProt P03378), sequence (P03378 32-509 limits assumed): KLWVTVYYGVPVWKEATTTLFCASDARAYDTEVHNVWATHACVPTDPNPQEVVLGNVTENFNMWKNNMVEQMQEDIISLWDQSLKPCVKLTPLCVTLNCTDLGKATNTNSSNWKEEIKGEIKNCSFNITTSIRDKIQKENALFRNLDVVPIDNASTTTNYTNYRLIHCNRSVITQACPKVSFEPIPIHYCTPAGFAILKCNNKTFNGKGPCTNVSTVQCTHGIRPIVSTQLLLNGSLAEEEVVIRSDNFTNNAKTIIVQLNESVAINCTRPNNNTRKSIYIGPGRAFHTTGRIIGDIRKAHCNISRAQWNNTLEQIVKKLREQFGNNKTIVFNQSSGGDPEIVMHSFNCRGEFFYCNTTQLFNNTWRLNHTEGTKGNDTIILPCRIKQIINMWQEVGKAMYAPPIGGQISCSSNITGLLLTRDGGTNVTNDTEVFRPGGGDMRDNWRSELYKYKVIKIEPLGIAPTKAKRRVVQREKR

In the case of Griffithsin, the “anti-HIV activity, EC50” value in data set [1] (CEM-SS cells infected with HIV-1, FIG. 4) is on record as “low nanomolar range”. Moreover, the “inhibition of virus-induced cell killing” value in [1] (HIV-1RF in CEM-SS cells) was “concentration-dependent inhibition”. In addition, in [1] (HIV-1RF in CEM-SS cells), the “supernatant reverse transcriptase and viral core antigen, p24” value was “concomitant decreases”. Also, the half-maximal effective concentration (EC50) (in general, the midpoint of the concentration-response curve) in data set [1] (HIV-1 laboratory strain RF, CEM-SS, T-tropic, XTT-tetrazolium, mean value) amounted to 0.043 nM; in data set [2], 0.63 nM; in data set [3], 0.5 nM; in [4] it was 0.098 nM; in data set [13], 0.07 µg/mL; in [14] it was 0.06 µg/mL. Moreover, the EC50 in data set [15] was 0.037 µg/mL; in [16] it was 0.006 µg/mL; in [17] it was 0.018 µg/mL; in [18] it was 0.016 µg/mL; in [19] it was 0.016 µg/mL; in [21] it was 4 µg/mL and 2 µg/mL. Besides, in [34], the EC50 amounted to 14 µg/mL. Also, the “binding of Griffithsin to sgp120” value in data set [5] was “both concentration-dependent and glycosylation-dependent”. Besides, in data set [6], the “interaction with gp120 (ELISA, absorbance at 405 nm)” value is reported as “direct interaction”. For the same molecule, the “interaction with cCD4 (ELISA)” value in [7] was “little or no detectable interaction”. The “interaction with other reference proteins (ELISA)” value in data set [8] is listed as “little or no detectable interaction”. The “infectivity of cell-free virus” value in data set [9] (after pretreatment of virus and removal of Griffithsin) is “abolished”. Also, the “susceptibility of pretreated uninfected CEM-SS cells to HIV infection” value in [9] (after the removal of Griffithsin) is “retained normal susceptibility”. Also, the “inhibition of cell-cell fusion” value in data set [10] is given as “concentration-dependent inhibition”. In addition, the “fusion of CD4 β-gal cells with HL 2/3 cells” value in [11] is “inhibited”. For the same molecule, the “cell-free HIV-1IIIB fusion and infection of β-gal cells” value in data set [12] is on record as “inhibited”. In addition, the “EC50 (anti-HCV)” value in [20] was 7.17 µg/mL. In addition, the “Inhibition of Viral Activity (% reduction Luc)” value in [20] came to 60%. In addition, in [21], the “average EC50” value is 3 µg/mL. Moreover, the half-maximal inhibitory concentration (IC50) (commonly the concentration at which inhibition is half-maximal) was above 100 µg/mL in data set [22], above 100 µg/mL in data set [23], above 10 µg/mL in [24] and above 10 µg/mL in [25]. Further, the “IC50 in each assay” value in data set [22] is “greater than 100 μg/ml”. Moreover, the anti-ebola virus activity result in data set [26] is “low μg/ml range”. In data set [27] (highest tested concentrations), the “direct cytotoxicity to the host cells” value is given as “no significant evidence of direct cytotoxicity”. For the same molecule, the “direct cytotoxicity to the uninfected control cells” value in data set [27] (highest tested concentrations of Griffithsin (78.3 to 783 nM)) was “little or no evidence of direct cytotoxicity”. In addition, in data set [28], the “toxicity against any of the cell lines” value is listed as “did not show any toxicity”. For the same molecule, the “interaction with gp160 (ELISA)” value in data set [29] is “direct interaction”. Further, the “subsequent binding of cyanovirin-N to sgp120” value in data set [30] (Griffithsin pretreatment of sgp120) is “did not block”. Also, the “recognition of sgp120 by mAbs that recognize the C1 region (or V3 loop), and the mAb 17b” value in [30] (effect of Griffithsin) is “little or no effect”. Also, the “recognition of sgp120 by the mAbs 48d and 2G12” value in data set [30] (effect of Griffithsin) was “interfered strongly”. In addition, the “sCD4 and mAb IgG 1b12 binding to sgp120” value in [30] (effect of Griffithsin) was “moderately interfered”. In addition, in data set [30] (sgp120 pretreated with sCD4 and the mAbs IgG1b12, 48d, and 2G12), the “subsequent binding of Griffithsin to sgp120” value is recorded as “did not block”. In [31], the “CD4-dependent sgp120 binding” value was “completely blocked”. Further, the “toxicity to the MDCK cell line” value in data set [32] is recorded as “not found to be toxic”. Besides, the “toxicity level (cytotoxicity)” value in data set [33] (highest test concentration of 10 μg/ml, FIG. 7) is listed as “never reached a toxicity level”. Further, in data set [33] (single high-test concentration of 20 μM, 72 hr), the “overall reduction in cell growth” value was found to be 25%. Besides, in [33] (72 hr), the “Cytotoxicity (% reduction in rRNA)*” value came to 74.5%. In addition, the EC90 (as a rule, the concentration needed for an effect of 90%) in data set [35] is 5 µg/mL.
On to `NC(=O)c1ncn([C@@H]2O[C@H](CO)[C@@H](O)[C@H]2O)n1` [Ribavirin, reference compound], for which the IC50 in data set [24] (setting [36]) and in data set [25] (setting [36]) was above 100 µg/mL in each case.
IFN-α [reference compound]: in [20], the “Inhibition of Viral Activity (% reduction Luc)” value amounted to 98.6%. Besides, the “Cytotoxicity (% reduction in rRNA)*” value in [33] (72 hr) worked out at 98.4%.
Turning to Cyanovirin-N [reference compound], the “recognition of sgp120 by Griffithsin” value in data set [30] (effect of cyanovirin-N) was “interfered strongly”.

These data come from patent US8088729B2 (priority 2005, dated 2012).
